Test system: Plasmodium berghei
Assay: Luciferase/luciferin-expressing antifolate-resistant parasites were used to infect a culture of HepG2 cells that were pre-incubated with compounds. Infected hepatocytes emit light due to the luciferase reaction. Assay results are presented as the percent inhibition of light emission compared to control. […]
Type: functional
Conditions: sporozoite; for IC90: read-out: LUCIFERASE INFECTION ASSAY - IC90
[1] = read-out: LUCIFERASE INFECTION ASSAY - IC50

Row | SMILES | IC90 [µM] | IC50 [1] [µM] | further results
1 | CN(C)CCCOc1ccc(-c2nnc3ccc(-c4cccc(Oc5ccccc5)c4)cn23)cc1 | > 10 | – | IC50 (PBLUC_HILL_SLOPE 15.3, PBLUC_R_SQUARED 0.363, read-out: LUCIFERASE INFECTION ASSAY - IC50): 9.36 µM
2 | O=C(Nc1ccccc1-c1nc(=O)c2ccccc2[nH]1)C12CC3CC(CC(C3)C1)C2 | > 10 | – | IC50 (PBLUC_HILL_SLOPE 7.56, PBLUC_R_SQUARED 0.487, read-out: LUCIFERASE INFECTION ASSAY - IC50): 9.01 µM
3 | Clc1ccccc1-c1cnc2cnc(-c3cnn(Cc4ccccc4)c3)cn12 | > 8.55 | > 8.55 | –
4 | O=C(Cc1cc(Cl)c2c(c1)OCCO2)NC(c1ccccc1)c1cccs1 (stereo unspecified) | > 10 | > 10 | –
5 | O=C(NC(=O)c1ccc(F)c(Cl)c1)Nc1nnc(C(F)(F)F)s1 | > 8.95 | – | IC50 (PBLUC_HILL_SLOPE 12, PBLUC_R_SQUARED 0.227, read-out: LUCIFERASE INFECTION ASSAY - IC50): 8.64 µM
6 | Cc1cc(C(=O)Nc2nc3ccccc3[nH]2)c(C)s1 | > 10 | > 10 | –
7 | COc1ccccc1-c1ccc2ncc(-c3cccc(C(C)=O)c3)n2n1 | 8.88 | – | IC50 (HEPG2TOX_HILL_SLOPE 0.183, HEPG2TOX_R_SQUARED 0.285, PBLUC_HILL_SLOPE 2.88, PBLUC_R_SQUARED 0.586, read-out: LUCIFERASE INFECTION ASSAY - IC50): 4.14 µM
8 | O=C(Nc1ccc(Cl)c(Cl)c1)Nc1c(-c2ccccc2)nc2ccccn12 | 4.52 | – | IC50 (HEPG2TOX_HILL_SLOPE 7.35, HEPG2TOX_R_SQUARED 0.457, PBLUC_HILL_SLOPE 10, PBLUC_R_SQUARED 0.727, read-out: LUCIFERASE INFECTION ASSAY - IC50): 3.63 µM
9 | CCN(Cc1ccccc1)c1nc2ccccc2nc1NS(=O)(=O)c1cc([N+](=O)[O-])ccc1C | > 10 | – | IC50 (FFLUC_HILL_SLOPE 11.4, FFLUC_R_SQUARED 0.293, HEPG2TOX_HILL_SLOPE 1.92, HEPG2TOX_R_SQUARED 0.959, PBLUC_HILL_SLOPE 2.98, PBLUC_R_SQUARED 0.638, read-out: LUCIFERASE INFECTION ASSAY - IC50): 7.87 µM
10 | CC(C)CNc1nn2c(-c3cccc(C(=O)N(C)C)c3)cnc2s1 | > 9.61 | – | IC50 (FFLUC_HILL_SLOPE 13.4, FFLUC_R_SQUARED 0.472, read-out: LUCIFERASE INFECTION ASSAY - IC50): > 9.61 µM
11 | COC(=O)c1cc(OC)c(OC)cc1NS(=O)(=O)c1ccc(Cl)cc1 | 2.91 | 2.84 | –
12 | Cc1ccc(COC(=O)c2cccc(S(=O)(=O)NCc3ccccc3)c2)cc1 | 4.92 | – | IC50 (HEPG2TOX_HILL_SLOPE 2.79, HEPG2TOX_R_SQUARED 0.991, PBLUC_HILL_SLOPE 8.82, PBLUC_R_SQUARED 0.278, read-out: LUCIFERASE INFECTION ASSAY - IC50): 3.84 µM
13 | Cn1nc(C(=O)N2CCc3ccccc3C2)c2c1CCC(NCCc1nc(-c3ccccc3)cs1)C2 (stereo unspecified) | > 6.63 | – | IC50 (PBLUC_HILL_SLOPE 5.11, PBLUC_R_SQUARED 0.298, read-out: LUCIFERASE INFECTION ASSAY - IC50): 5.56 µM
14 | Nn1cc(C(F)(F)F)cc(Cl)c1=[N+]1CCNCC1 | > 7.29 | > 7.29 | –
15 | Cc1sc2nc(-c3cccnc3)nc(NC3CCC(O)CC3)c2c1-c1ccccc1 (stereo unspecified) | > 10 | > 10 | –
16 | CCC(C)NC(=O)c1c(NC(=O)c2cc(F)c(F)cc2F)nc2ccc(C)cn12 (stereo unspecified) | 1.1 | 0.917 | –
17 | CC1CCC2(CC1)NC(=O)N(Cc1ccc(C(=O)Nc3ccccc3)cc1)C2=O (stereo unspecified) | > 10 | – | IC50 (HEPG2TOX_HILL_SLOPE 0.925, HEPG2TOX_R_SQUARED 0.33, PBLUC_HILL_SLOPE 1.44, PBLUC_R_SQUARED 0.482, read-out: LUCIFERASE INFECTION ASSAY - IC50): 2.56 µM

Row | SMILES | IC90 [µM] | IC50 [1] [µM] | further results
18 | O=C(OCCSc1ccc([N+](=O)[O-])c2nonc12)c1ccccc1 | > 9.56 | – | IC50 (FFLUC_HILL_SLOPE 1.36, FFLUC_R_SQUARED 0.568, HEPG2TOX_HILL_SLOPE 2.89, HEPG2TOX_R_SQUARED 0.849, PBLUC_HILL_SLOPE 0.85, PBLUC_R_SQUARED 0.48, read-out: LUCIFERASE INFECTION ASSAY - IC50): 5.19 µM
19 | CCN(c1ccccc1)S(=O)(=O)c1cc(NC(=O)CNCc2ccco2)ccc1Cl | > 10 | > 10 | –
20 | NC(=O)c1c(NC(=O)NCc2ccncc2)sc2c1CCCC2 | > 9.99 | > 9.99 | –
21 | O=S(=O)(c1ccc(Cl)s1)N1CCN(c2ncnc3ccccc23)CC1 | > 10 | – | IC50 (HEPG2TOX_HILL_SLOPE 2.41, HEPG2TOX_R_SQUARED 0.894, PBLUC_HILL_SLOPE 2.42, PBLUC_R_SQUARED 0.407, read-out: LUCIFERASE INFECTION ASSAY - IC50): 4.98 µM
22 | Cc1cc(C)n(-c2ccc3c(Cl)cc(Cl)c(O)c3n2)n1 | 0.393 | – | IC50 (HEPG2TOX_HILL_SLOPE 0.646, HEPG2TOX_R_SQUARED 0.957, PBLUC_HILL_SLOPE 194, PBLUC_R_SQUARED 0.635, read-out: LUCIFERASE INFECTION ASSAY - IC50): 0.388 µM
23 | COc1cc(-c2cnc3cnc(-c4ccc(C(=O)NCCN(C)C)cc4)cn23)ccc1O | > 7.65 | > 7.65 | –
24 | CNc1nc(-c2[nH]c(C)c(C(=O)OC)c2C)cs1 | 2.11 | – | IC50 (FFLUC_HILL_SLOPE 0.348, FFLUC_R_SQUARED 0.146, HEPG2TOX_HILL_SLOPE 0.722, HEPG2TOX_R_SQUARED 0.883, PBLUC_HILL_SLOPE 1.52, PBLUC_R_SQUARED 0.828, read-out: LUCIFERASE INFECTION ASSAY - IC50): 0.496 µM
25 | CC(=C(C#N)C#N)c1ccc(Cl)cc1 | > 16.3 | – | IC50 (FFLUC_HILL_SLOPE 16.5, FFLUC_R_SQUARED 0.121, read-out: LUCIFERASE INFECTION ASSAY - IC50): > 16.3 µM
26 | Cc1cc(=O)n(-c2ccc(C(F)(F)F)cc2[N+](=O)[O-])[nH]1 | > 10 | > 10 | –
27 | Cc1ccc(S(=O)(=O)N2Cc3ccccc3C(C)CC23CCCCC3)cc1 (stereo unspecified) | > 8.6 | – | IC50 (PBLUC_HILL_SLOPE 1.1, PBLUC_R_SQUARED 0.205, read-out: LUCIFERASE INFECTION ASSAY - IC50): > 8.6 µM
28 | CCC(C)c1ccc(NC(=O)/C(C#N)=C/c2cc3c(cc2[N+](=O)[O-])OCO3)cc1 (stereo unspecified) | > 10 | – | IC50 (HEPG2TOX_HILL_SLOPE 0.229, HEPG2TOX_R_SQUARED 0.341, PBLUC_HILL_SLOPE 0.634, PBLUC_R_SQUARED 0.752, read-out: LUCIFERASE INFECTION ASSAY - IC50): 2.46 µM
29 | COc1cc(C(=O)OCC(=O)c2ccc(-c3ccccc3)cc2)c([N+](=O)[O-])cc1OC | > 10 | – | IC50 (PBLUC_HILL_SLOPE 1.3, PBLUC_R_SQUARED 0.199, read-out: LUCIFERASE INFECTION ASSAY - IC50): > 10 µM
30 | CCc1cc2c(Sc3nnc(N)s3)ncnc2s1 | > 11.2 | > 11.2 | –
31 | Cc1cc(C)c(N2C(=O)C=CC2=O)c(C)c1 | 13.1 | – | IC50 (FFLUC_HILL_SLOPE 3.47, FFLUC_R_SQUARED 0.6, PBLUC_HILL_SLOPE 4.24, PBLUC_R_SQUARED 0.739, read-out: LUCIFERASE INFECTION ASSAY - IC50): 7.79 µM
32 | CCn1c(C)nc2cc(C(=O)NNC(=O)/C=C/c3cccc(C(F)(F)F)c3)ccc21 | > 10 | > 10 | –
33 | CCOc1cccc(-c2cn3c(-c4ccc(C#N)cc4)cnc3cn2)c1 | > 9.69 | – | IC50 (PBLUC_HILL_SLOPE 4.27, PBLUC_R_SQUARED 0.47, read-out: LUCIFERASE INFECTION ASSAY - IC50): 6.18 µM

Reference: ChEMBL document CHEMBL4483862, “Open-source discovery of chemical leads for next-generation chemoprotective antimalarials” (2018)
